Measured values from US10947229B2, “Dimethyl amino azetidine amides as JAK inhibitors” (THERAVANCE BIOPHARMA R&D IP, LLC, priority 2018, dated 2021).

Key:
Assay type in all cases: cell-based
[1] = test system: IFNγ induced CXCL10 secretion; assay: Inhibition of IFNγ induced CXCL10 in human 3D airway cultures; conditions: 192 h, 8 days, 4 donors
Description: EpiAirway tissue cultures were obtained from Mattek (AIR-100). Cultures were derived from asthmatic donors. In a cell culture insert, human derived tracheal/bronchial epithelial cells were grown and differentiated on a porous membrane support, allowing an air-liquid interface with warmed culture medium below the cells and a gaseous test atmosphere above. Tissues were cultured in maintenance media ([…]) in a 37° C., 5% CO2 humidified incubator. Four donors were tested. On Day 0, tissue cultures were treated with test compounds in liquid interface at 10 μM, 1 μM and/or 0.1 μM. Compounds were diluted in dimethyl sulfoxide (DMSO, Sigma) to a final concentration of 0.1%. DMSO at 0.1% was used as a vehicle control. […] Tissue cultures were maintained for 8 days. Media was replaced every 2 days with fresh media containing compounds and IFNγ or IL-27. On Day 8, tissue cultures and supernatants were collected for analysis. Supernatant samples were assayed for CXCL10 (IP-10) and CXCL9 (MIG) using luminex analysis (EMD Millipore). Data is expressed as % Inhibition+/-standard deviation (±STDV). Percent inhibition was determined by compound inhibitory potency against IFNγ or IL-27 induced CXCL10 or CXCL9 secretion compared to vehicle treated cells. Data is the average from 4 donors.

[2] = test system: IFNγ stimulated STAT1 phosphorylation in CD14+ monocytes; assay: Cellular JAK potency assay: inhibition of IFNγ-induced pSTAT1; conditions: Monocyte; CD14+ monocytes from human whole blood; read-out: pIC50, inhibition of IFNγ-induced pSTAT1 (converted)
Description: The potency of test compounds for inhibition of interferon gamma (IFNγ) stimulated STAT1 phosphorylation was measured in CD14-positive (CD14+) monocytes derived from human whole blood (Stanford Blood Center) using flow cytometry. Because IFNγ signals through JAK, this assay provides a measure of JAK cellular potency. Monocytes were identified using a fluorescein isothiocyanate (FITC) conjugated anti-CD14 antibody (Clone RM052, Beckman Coulter), and an Alexa Fluor 647 conjugated anti-pSTAT1 antibody ([…], Clone 4a, BD Biosciences) was used to detect STAT1 phosphorylation. Human peripheral blood mononuclear cells (PBMC) were isolated from human whole blood of healthy donors using a ficoll gradient. […] Cells were washed twice with FACS buffer, and then re-suspended in 1:10 anti-pSTAT1 Alexa Fluor 647:FACS buffer (100 μL) for 30 min at RT in the dark, washed twice in FACS buffer, and analyzed using a MACSQuant flow cytometer (Miltenyi). To determine the inhibitory potency of the test compound, the median fluorescent intensity (MFI) of pSTAT1 was measured in CD14+ monocytes. IC50 values were determined from analysis of the inhibition curves of MFI vs compound concentration. Data are expressed as pIC50 (negative decadic logarithm IC50) values.

[3] = test system: GM-CSF stimulated STAT5 phosphorylation in CD14+ monocytes; assay: Cellular JAK potency assay: inhibition of GM-CSF-induced pSTAT5; conditions: Monocyte; CD14+ monocytes from human whole blood; read-out: pIC50, inhibition of GM-CSF-induced pSTAT5 (converted)
Description: The potency of test compounds for inhibition of granulocyte-macropage colony-stimulating factor (GM-CSF) stimulated STAT5 phosphorylation was measured in CD14-positive (CD14+) monocytes derived from human whole blood (Stanford Blood Center) using flow cytometry. Because GM-CSF signals through JAK, this assay provides a measure of JAK cellular potency. Monocytes were identified using a fluorescein isothiocyanate (FITC) conjugated anti-CD14 antibody (Clone RM052, Beckman Coulter), and an Alexa Fluor 647 conjugated anti-pSTAT5 antibody (pY694, BD Biosciences) was used to detect STAT5 phosphorylation. Human peripheral blood mononuclear cells (PBMC) were isolated from human whole blood of healthy donors using a ficoll gradient. […] Cells were washed twice with FACS buffer, and then re-suspended in 1:10 […] Alexa Fluor 647:FACS buffer (100 μL) for 30 min at RT in the dark, washed twice in FACS buffer, and analyzed using a MACSQuant flow cytometer (Miltenyi). To determine the inhibitory potency of the test compound, the median fluorescent intensity (MFI) of pSTAT5 was measured in CD14+ monocytes. IC50 values were determined from analysis of the inhibition curves of MFI vs compound concentration. Data are expressed as pIC50 (negative decadic logarithm IC50) values.

CCc1cc(O)ccc1-c1ccc2c(-c3nc4c([nH]3)CN(C(C)C)[C@H](C(=O)N3CC(N(C)C)C3)C4)n[nH]c2c1 [Compound 1, (S)-(3-(dimethylamino)azetidin-1-yl)(2-(6-(2-ethyl-4-hydroxyphenyl)-1H-indazol-3-yl)-5-isopropyl-4,5,6,7-tetrahydro-3H-imidazo[4,5-c]pyridin-6-yl)methanone]
inhibition at 0.1 µM ([1]; 0.1 μM): 18% | inhibition at 1 µM ([1]; 1 μM): 76% | inhibition at 10 µM ([1]; 10 μM): 100% | IC50 [2]: 31.6 nM | IC50 [3]: 126 nM
